Results: ChEMBL document CHEMBL3734690, “Design, Synthesis, and Biological Evaluation of Indole Biphenylcarboxylic Acids as PPARγ Antagonists” (ACS Med Chem Lett, 2015)

What was measured:
in vivo [1] = conditions: mouse, plasma, po, 20 mg/kg
Description: Plasma concentration in mouse at 20 mg/kg, po after 2 hrs

in vivo [2] = conditions: mouse, plasma, po, 20 mg/kg; remark: listed apart in the source
Description: Plasma concentration in mouse at 20 mg/kg, po after 6 hrs

Structure (SMILES)	concentration at 2 h (in vivo [1])	concentration at 6 h (in vivo [2])
Cc1c(C)n(Cc2ccc(-c3ccccc3C(=O)O)cc2)c2ccc(C(=O)N[C@@H](C)c3cccc(C4CC4)c3)cc12	19000 nM	2400 nM
Cc1c(C)n(Cc2ccc(-c3ccccc3C(=O)O)cc2)c2ccc(C(=O)N[C@@H](C)c3ccc(C(C)(C)C)cc3)cc12	5600 nM	1900 nM
Cc1c(C)n(Cc2ccc(-c3ccccc3-c3n[nH]c(=O)o3)cc2)c2ccc(C(=O)N[C@@H](C)c3cccc(C(C)C)c3)cc12	200 nM	10 nM
Cc1c(C)n(Cc2ccc(-c3ccccc3C(N)=O)cc2)c2ccc(C(=O)N[C@@H](C)c3cccc(C(C)C)c3)cc12	2500 nM	100 nM
Cc1c(C)n(Cc2ccc(-c3ccccc3C(=O)NO)cc2)c2ccc(C(=O)N[C@@H](C)c3cccc(C(C)C)c3)cc12	400 nM	30 nM
